According to patent US20110071178A1, “Methods and Compounds for Modulating Cannabinoid Activity” (Northeastern University, priority 2007, published 2011):

Columns and labels:
MGL = target: T1, MGL (Rattus norvegicus, UniProt Q8R431); details: 100 µM
T1 sequence (Q8R431 1-303): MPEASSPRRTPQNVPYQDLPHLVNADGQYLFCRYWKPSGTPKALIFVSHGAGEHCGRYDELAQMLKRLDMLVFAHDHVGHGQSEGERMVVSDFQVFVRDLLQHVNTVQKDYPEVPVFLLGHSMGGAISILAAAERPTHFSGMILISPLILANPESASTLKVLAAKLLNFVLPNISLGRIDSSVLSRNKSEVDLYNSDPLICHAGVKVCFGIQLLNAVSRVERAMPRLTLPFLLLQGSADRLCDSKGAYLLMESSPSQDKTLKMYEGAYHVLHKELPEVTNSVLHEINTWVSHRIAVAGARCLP

melting point [°C] | inhibition (MGL) [%] | SMILES
32 to 35 |  | O=S(=O)(F)CCCCCc1ccc(O)cc1 [Compound 14.4, 5-(4-Hydroxy-phenyl)-pentanesulfonyl fluoride]
33 to 35 |  | O=S(=O)(Cl)CCCCCCCc1ccc(OCc2ccccc2)cc1 [Compound 12.1, 7-(4-Benzyloxy-phenyl)-heptanesulfonyl chloride]
 | 44 | CCOC(=O)NCc1ccc(Br)cc1 [Compound 57.1]
58 to 60 |  | O=S(=O)(Cl)CCCCCc1ccc(OCc2ccccc2)cc1 [Compound 12.4, 5-(4-Benzyloxy-phenyl)-pentanesulfonyl chloride]
